Results on 18 compounds are retold here after ChEMBL document CHEMBL1124960, “Histamine H3 ligands: just pharmacological tools or potential therapeutic agents?” (J Med Chem, 1990).

For assay [1], the species on record is Rattus norvegicus. Nature of the assay: Relative inhibition of [3H]histamine release from pre-loaded slices of rat cerebral cortex. It is filed as functional.
For assay [2], the species on record is Rattus norvegicus. Nature of the assay: Evaluated for inhibition of [3H]histamine release from preloaded slices and is represented as pD2. It is filed as functional.
In assay [3] the target is Histamine H2 receptor (Cavia porcellus) (UniProt P47747). The experiment in a line: Evaluated for activity at Histamine H2 receptor in guinea pig ileum. It is filed as tissue-based.
For assay [4], the target named is Histamine H1 receptor (Cavia porcellus) (UniProt P31389). The experiment in a line: Evaluated for activity at Histamine H1 receptor in guinea pig ileum. It is filed as tissue-based.
Assay [5] concerns the target Histamine H2 receptor (Cavia porcellus) (UniProt P47747). The following applies: Cardiac atrium.
The target in assay [6] is Histamine H1 receptor (Cavia porcellus) (UniProt P31389). The conditions noted are these: Ileum.
For assay [7], the species on record is Rattus norvegicus. Nature of the assay: Inhibition of [3H]histamine release from preloaded slices of rat cerebral cortex as pD2. The assay is classed as functional.
In assay [8] the target is Histamine H1 receptor (Cavia porcellus) (UniProt P31389). The experiment in a line: Evaluated for their activity at histamine H1 receptor in guinea pig ileum. It is filed as tissue-based.
In assay [9] the target is Histamine H2 receptor (Cavia porcellus) (UniProt P47747). Nature of the assay: Evaluated for their activity at histamine H2 receptor in guinea pig ileum. It is filed as tissue-based.
The target of assay [10] is T1, Histamine H3 receptor (Rattus norvegicus, UniProt Q9QYN8). The experiment in a line: (§1) Evaluated for antagonist activity against Histamine H3 receptor and represented as KB. It is filed as functional.
For assay [11], the target named is T1, Histamine H3 receptor. Nature of the assay: Evaluated for antagonist activity against histamine H3 receptor and is represented as -log Ki. The assay is classed as functional.
Assay [12] addresses Histamine H3 receptor (Rattus norvegicus) (UniProt Q9QYN8). Nature of the assay: Evaluated for antagonist activity against histamine H3 receptor and represented as KB. It is filed as functional.
Target sequence in this assay (Q9QYN8 whole entry): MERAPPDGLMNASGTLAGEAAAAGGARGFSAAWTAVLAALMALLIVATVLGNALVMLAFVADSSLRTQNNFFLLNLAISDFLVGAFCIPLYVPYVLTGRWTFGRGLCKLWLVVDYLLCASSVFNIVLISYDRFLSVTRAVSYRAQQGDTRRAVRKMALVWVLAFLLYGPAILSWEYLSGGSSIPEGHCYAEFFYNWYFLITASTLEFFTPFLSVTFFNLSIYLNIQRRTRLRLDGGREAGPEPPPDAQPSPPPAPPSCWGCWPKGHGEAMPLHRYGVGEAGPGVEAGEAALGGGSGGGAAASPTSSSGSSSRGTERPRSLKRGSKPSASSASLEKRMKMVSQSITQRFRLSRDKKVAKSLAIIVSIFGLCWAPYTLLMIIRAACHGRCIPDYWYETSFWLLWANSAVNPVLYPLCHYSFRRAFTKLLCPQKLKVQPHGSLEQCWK
The species named for assay [13] is Rattus norvegicus. The experiment in a line: Evaluated for inhibition of [3H]histamine release from preloaded slices and is represented as pD2. It is filed as functional.
For assay [14], the target named is Histamine H3 receptor (Rattus norvegicus) (UniProt Q9QYN8). Nature of the assay: Evaluated for antagonist activity against histamine H3 receptor and represented as KB. It is filed as functional.
Target sequence in this assay (Q9QYN8 whole entry): as above
The species named for assay [15] is Rattus norvegicus. The experiment in a line: Histamine level after treatment was determined in adbominal skin. It is filed as functional.
The species entered for assay [16] is Rattus norvegicus. Nature of the assay: Histamine level after treatment was determined in cerebral cortex. The assay is classed as functional.
Assay [17] is filed under the species Rattus norvegicus. The experiment in a line: Histamine level after treatment was determined in spleen. The assay is classed as functional.
For assay [18], the species on record is Rattus norvegicus. The experiment in a line: Histamine level after treatment was determined in hypothalamus. It is filed as functional.
The species named for assay [19] is Rattus norvegicus. The experiment in a line: Histamine level after treatment was determined in colon. It is filed as functional.
For assay [20], the target named is Histamine H2 receptor (Cavia porcellus) (UniProt P47747). The experiment in a line: Evaluated for agonistic activity at histamine H2 receptor of guinea pig atrium and is represented as potency. The assay is classed as functional, tissue-based. The conditions noted are these: Cardiac atrium.
Assay [21] shares this target. Nature of the assay: Evaluated for agonistic (intrinsic) activity at histamine H2 receptor of guinea pig atrium and is represented as intrinsic activity. The following applies: Cardiac atrium. It is filed as functional, tissue-based.
The target in assay [22] is Histamine H1 receptor (Cavia porcellus) (UniProt P31389). Nature of the assay: Evaluated for agonistic activity at histamine H1 receptor of guinea pig ileum and is represented as potency. It is filed as functional, tissue-based.
Assay [23] shares this target. Nature of the assay: Evaluated for agonistic activity at histamine H1 receptor of guinea pig ileum and is represented as intrinsic activity. The assay is classed as functional, tissue-based.
For assay [24], the target named is Histamine H3 receptor (Cavia porcellus) (UniProt Q9JI35). The description is as §1. It is filed as functional.
The target of assay [25] is Histamine H3 receptor (Rattus norvegicus) (UniProt Q9QYN8). Nature of the assay: Evaluated for activity against H3 receptor and represented as %recovery histamine release at a concentration 5 x 10 E -6M.
Target sequence in this assay (Q9QYN8 whole entry, looked up): as the sequence (Q9QYN8 whole entry) above
In another assay the target is Histamine H2 receptor (Cavia porcellus, UniProt P47747). Nature of the assay: Evaluated for activity against Histamine H2 receptor in guinea pig atrium and represented pA2. It is filed as tissue-based, Cardiac atrium. The following applies: read-out: pA2 (converted).
Assay [26] has as its target Histamine H2 receptor (Cavia porcellus) (UniProt P47747). Nature of the assay: Evaluated for activity against Histamine H2 receptor in guinea pig atrium and represented as alpha. The assay is classed as tissue-based. The following applies: Cardiac atrium.
Assay [27] has the same target. The experiment in a line: Evaluated for activity against histamine H2 receptor in guinea pig gastric secretion and represented as intrinsic activity. The conditions noted are these: Stomach.
The species named for assay [28] is Rattus norvegicus. The experiment in a line: Evaluated for [3H]HA release at a frequency 20 Hz for 2 min at a concentration 10 E -7M. It is filed as functional.
The species named for assay [29] is Rattus norvegicus. Nature of the assay: Evaluated for [3H]HA release at a frequency 20 Hz for 2 min at a concentration 10 E -6M. It is filed as functional.
For assay [30], the species on record is Rattus norvegicus. The experiment in a line: Evaluated for [3H]HA release at a frequency 2 Hz for 2.5 min at a concentration 10 E -6M. The assay is classed as functional.
Assay [31] is filed under the species Rattus norvegicus. Nature of the assay: Evaluated for [3H]HA release at a frequency 33.3 Hz for 2 min at a concentration 10 E -5M. The assay is classed as functional.
Assay [32] is filed under the species Rattus norvegicus. Nature of the assay: Evaluated for [3H]HA release at a frequency 20 Hz for 2 min at a concentration 10 E -5M. The assay is classed as functional.
Assay [33] addresses Histamine H2 receptor (Cavia porcellus) (UniProt P47747). Nature of the assay: Evaluated for activity against histamine H2 receptor in guinea pig gastric secretion and represented as alpha. It is filed as tissue-based. The following applies: Stomach.
For assay [34], the species on record is Rattus norvegicus. Nature of the assay: Evaluated for [3H]-HA release at a frequency 33.3 Hz for 2 min at a concentration 10 E -6M. The assay is classed as functional.
Assay [35] is filed under the species Rattus norvegicus. Nature of the assay: Evaluated for [3H]HA release at a frequency 10 Hz for 2 min at a concentration 10 E -6M. The assay is classed as functional.
Assay [36] is filed under the species Rattus norvegicus. The experiment in a line: Evaluated for [3H]-HA release at a frequency 10 Hz for 2 min at a concentration 10 E -5M. It is filed as functional.
The species entered for assay [37] is Rattus norvegicus. Nature of the assay: Evaluated for [3H]HA release at a frequency 10 Hz for 2 min at a concentration 10 E -7M. The assay is classed as functional.

Where only a bound is given, the exact number is not on record here.

T1 sequence (Q9QYN8 whole entry): as above
Chain of Histamine H2 receptor (Cavia porcellus) (P47747 whole entry): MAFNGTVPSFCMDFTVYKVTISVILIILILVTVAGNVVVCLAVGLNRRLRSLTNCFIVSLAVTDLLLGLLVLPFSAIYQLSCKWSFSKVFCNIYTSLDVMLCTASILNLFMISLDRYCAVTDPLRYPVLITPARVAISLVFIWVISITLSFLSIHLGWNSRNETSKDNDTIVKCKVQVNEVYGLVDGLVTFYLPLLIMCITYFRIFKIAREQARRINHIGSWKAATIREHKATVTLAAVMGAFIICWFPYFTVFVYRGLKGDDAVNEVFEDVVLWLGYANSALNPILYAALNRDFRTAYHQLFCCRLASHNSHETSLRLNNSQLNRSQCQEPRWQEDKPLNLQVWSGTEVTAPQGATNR
Chain of Histamine H1 receptor (Cavia porcellus) (P31389 whole entry): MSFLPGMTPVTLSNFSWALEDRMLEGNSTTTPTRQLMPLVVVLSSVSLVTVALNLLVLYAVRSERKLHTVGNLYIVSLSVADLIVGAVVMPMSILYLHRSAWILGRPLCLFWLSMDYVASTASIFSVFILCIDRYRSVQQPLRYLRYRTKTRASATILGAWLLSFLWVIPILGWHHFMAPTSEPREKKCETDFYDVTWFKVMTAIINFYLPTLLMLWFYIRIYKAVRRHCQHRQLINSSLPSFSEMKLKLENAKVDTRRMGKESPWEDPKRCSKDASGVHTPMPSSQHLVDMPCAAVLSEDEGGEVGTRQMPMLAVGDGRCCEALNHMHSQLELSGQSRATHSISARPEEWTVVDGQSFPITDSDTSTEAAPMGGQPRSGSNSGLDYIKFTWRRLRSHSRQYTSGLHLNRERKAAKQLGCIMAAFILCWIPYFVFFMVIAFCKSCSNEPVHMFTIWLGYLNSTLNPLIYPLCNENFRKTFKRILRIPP
Chain of Histamine H2 receptor (P47747 whole entry): as the sequence (P47747 whole entry) above
Chain of Histamine H3 receptor (Cavia porcellus) (Q9JI35 whole entry): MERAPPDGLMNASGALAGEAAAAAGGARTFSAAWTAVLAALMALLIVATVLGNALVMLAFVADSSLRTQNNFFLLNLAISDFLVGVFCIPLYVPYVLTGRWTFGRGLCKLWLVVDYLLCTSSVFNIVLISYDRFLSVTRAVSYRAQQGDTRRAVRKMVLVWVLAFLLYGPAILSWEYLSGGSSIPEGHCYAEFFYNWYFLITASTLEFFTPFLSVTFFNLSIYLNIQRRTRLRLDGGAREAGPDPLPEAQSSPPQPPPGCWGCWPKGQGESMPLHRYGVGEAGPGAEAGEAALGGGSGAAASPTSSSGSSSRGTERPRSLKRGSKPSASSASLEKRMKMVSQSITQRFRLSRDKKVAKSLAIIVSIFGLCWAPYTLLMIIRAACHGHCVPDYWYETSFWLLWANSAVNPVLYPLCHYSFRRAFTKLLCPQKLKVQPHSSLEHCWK

Regarding `CNCCc1cnc[nH]1`, in the assay listed under Rattus norvegicus [1], the Ratio_EC50 was found to be 270. Further, the pD2 in the assay filed under Rattus norvegicus [2] is listed as 8.7. The Activity came to 74 in assay [3] and 72 in assay [4].

On to `NCCc1c[nH]cn1` [HISTAMINE], for which the Ratio_EC50 in the assay filed under Rattus norvegicus [1] worked out at 100. In assay [5], this compound returned a pD2 of 5.95. This compound also displayed a Potency in assay [6] of 100. Besides, the Activity in assay [3] and in assay [4] was 100 throughout.

`CN(C)CCc1cnc[nH]1` gave a Ratio_EC50 in the assay listed under Rattus norvegicus [1] of 170. In the assay listed under Rattus norvegicus [7], the pD2 was determined as 7.3. In addition, the Activity was found to be 44 in [8] and 51 in assay [9].

For `O=C(CCCCc1ccccc1)NCCc1cnc[nH]1`, the affinity at Histamine H3 receptor [10] corresponds to a Ki of 200 nM.

For the compound `O=C(CCC(c1ccccc1)c1ccccc1)NCCc1c[nH]cn1`, the Ki (as a rule, the dissociation constant of the complex between target and ligand, obtained from inhibition or displacement) on Histamine H3 receptor [11] is 1000 nM.

In turn, `Cc1ncc(CCN)[nH]1` [2-METHYLHISTAMINE] displayed a Ratio_EC50 in the assay listed under Rattus norvegicus [1] below 0.008. Further, the Activity in assay [3] was determined as 4.4; in [4], 16.5.

Take `CN(C)CC[C@H](c1ccc(Cl)cc1)c1ccccn1`: in [12], the KB (commonly the equilibrium dissociation constant of an antagonist, usually derived from a functional assay) is above 58 nM.

`CC(C)NCCc1c[nH]cn1` showed a pD2 in the assay filed under Rattus norvegicus [13] below 5.5.

`C[C@H](N)Cc1c[nH]cn1` came in with a Ratio_EC50 in the assay listed under Rattus norvegicus [1] of 13. Further, the Activity in assay [3] was 1.74; in assay [4], 0.49.

In [14], `CN(C)CC[C@@H](c1ccc(Cl)cc1)c1ccccn1` registered a KB above 58 nM.

For `S=C(NC1CCCCC1)N1CCC(c2cnc[nH]2)CC1` [THIOPERAMIDE], the Histamine level is recorded as 75 in the assay listed under Rattus norvegicus [15]; 234 in the assay filed under Rattus norvegicus [16]; 123 in the assay listed under Rattus norvegicus [17]; 245 in the assay listed under Rattus norvegicus [18]; 80 in the assay filed under Rattus norvegicus [19].

Turning to `O=C(CCCc1ccccc1)NCCc1cnc[nH]1`, the affinity on Histamine H3 receptor [10] corresponds to a Ki of 79.4 nM.

Consider `Cc1nc[nH]c1CSCCN/C(N)=N/C(C)Cc1c[nH]cn1` (configuration not stated), for which the pD2 in assay [20] came out at 6.48. The Activity in assay [21] came out at 0.8.

In assay [22], `Cc1nc[nH]c1CSCCN/C(N)=N/[C@@H](C)Cc1c[nH]cn1` displayed a Potency of 0. Further, the Activity in assay [21] and in assay [23] was 0 throughout.

Take `CNC(=C[N+](=O)[O-])NCCSCc1ccc(CN(C)C)o1`: the KB in [24] came to 1.2 µM.

Compound `CSCC/N=C(\NC#N)NCCCc1c[nH]cn1` [VUF-8406] came in with a Release in assay [25] of 100%. The Kb at Histamine H2 receptor was 15.8 nM. Further, in assay [26], the Activity stood at 0.

For the compound `O=C(CCCC1CCCCC1)NCCc1cnc[nH]1`, the affinity at Histamine H3 receptor [11], expressed as Ki, was 50.1 nM.

The compound `Cc1[nH]cnc1CSCCNC(=N)NCCCc1c[nH]cn1` [IMPROMIDINE] showed an intrinsic activity in [27] of 1. Also, the HA release amounted to 31.2 in the assay filed under Rattus norvegicus [28]; 35.5 in the assay listed under Rattus norvegicus [29]; 14.3 in the assay filed under Rattus norvegicus [30]; 38.4 in the assay filed under Rattus norvegicus [31]; 35.1 in the assay filed under Rattus norvegicus [32]; 39.5 in the assay listed under Rattus norvegicus [34]. In addition, the HA release in the assay filed under Rattus norvegicus [35] worked out at 25.9; in the assay listed under Rattus norvegicus [36] it was 25.5; in the assay listed under Rattus norvegicus [37], 25.3. The H2 activity in assay [33] stood at 1. This compound also came in with an Activity in assay [8] below 0.001.
